Source: patent US9518052B2, “Pyrazolopyridines and pyrazolopyrimidines” (Pfizer Inc., priority 2014, dated 2016)
Counter-ions that a name gives are not always drawn.

Key:
Type in all cases: biochemical
Details in all cases: Caliper assay at 1 mM ATP
JAK1 = JAK1 (Homo sapiens (Human), UniProt P23458); test: JAK Caliper Enzyme Assay at 1 mM ATP (JAK1)
Description: (§1) JAK Caliper Enzyme Assay at 1 mM ATP
(§2) Test article was solubilized in dimethyl sulfoxide (DMSO) to a stock concentration of 30 mM. An 11-point half log dilution series was created in DMSO with a top concentration of 600 μM. […] The compound plates were diluted 1 to 60 resulting in a top final assay compound concentration of 10 μM and a 2% DMSO concentration.
(§3) Test article and assay controls were added to a 384-well plate. Reaction mixtures contained 20 mM HEPES, pH 7.4, 10 mM magnesium chloride, 0.01% bovine serum albumin (BSA), 0.0005% Tween 20, 1 mM ATP and 1 μM peptide substrate. […] Enzyme concentrations and incubation times were optimized for each new enzyme preps and were modified slightly over time to ensure 20%-30% phosphorylation. The assays were stopped with a final concentration of 10 mM EDTA, 0.1% Coating Reagent and 100 mM HEPES, pH=7.4. The assay plates were placed on a Caliper Life Science Lab Chip 3000 (LC3000) instrument, and each well was sampled using appropriate separation conditions to measure the unphosphorylated and phosphorylated peptide.

JAK2 = JAK2 (Homo sapiens (Human), UniProt O60674); test: JAK Caliper Enzyme Assay at 1 mM ATP (JAK2)
Description: as §1, §2, §3

JAK3 = JAK3 (Homo sapiens (Human), UniProt P52333); test: JAK Caliper Enzyme Assay at 1 mM ATP (JAK3)
Description: as §1, §2, §3

TYK2 = TYK2 (Homo sapiens (Human), UniProt P29597); test: JAK Caliper Enzyme Assay at 1 mM ATP (TYK2)
Description: as §1, §2, §3

JAK3, sequence (P52333 whole entry, species assumed): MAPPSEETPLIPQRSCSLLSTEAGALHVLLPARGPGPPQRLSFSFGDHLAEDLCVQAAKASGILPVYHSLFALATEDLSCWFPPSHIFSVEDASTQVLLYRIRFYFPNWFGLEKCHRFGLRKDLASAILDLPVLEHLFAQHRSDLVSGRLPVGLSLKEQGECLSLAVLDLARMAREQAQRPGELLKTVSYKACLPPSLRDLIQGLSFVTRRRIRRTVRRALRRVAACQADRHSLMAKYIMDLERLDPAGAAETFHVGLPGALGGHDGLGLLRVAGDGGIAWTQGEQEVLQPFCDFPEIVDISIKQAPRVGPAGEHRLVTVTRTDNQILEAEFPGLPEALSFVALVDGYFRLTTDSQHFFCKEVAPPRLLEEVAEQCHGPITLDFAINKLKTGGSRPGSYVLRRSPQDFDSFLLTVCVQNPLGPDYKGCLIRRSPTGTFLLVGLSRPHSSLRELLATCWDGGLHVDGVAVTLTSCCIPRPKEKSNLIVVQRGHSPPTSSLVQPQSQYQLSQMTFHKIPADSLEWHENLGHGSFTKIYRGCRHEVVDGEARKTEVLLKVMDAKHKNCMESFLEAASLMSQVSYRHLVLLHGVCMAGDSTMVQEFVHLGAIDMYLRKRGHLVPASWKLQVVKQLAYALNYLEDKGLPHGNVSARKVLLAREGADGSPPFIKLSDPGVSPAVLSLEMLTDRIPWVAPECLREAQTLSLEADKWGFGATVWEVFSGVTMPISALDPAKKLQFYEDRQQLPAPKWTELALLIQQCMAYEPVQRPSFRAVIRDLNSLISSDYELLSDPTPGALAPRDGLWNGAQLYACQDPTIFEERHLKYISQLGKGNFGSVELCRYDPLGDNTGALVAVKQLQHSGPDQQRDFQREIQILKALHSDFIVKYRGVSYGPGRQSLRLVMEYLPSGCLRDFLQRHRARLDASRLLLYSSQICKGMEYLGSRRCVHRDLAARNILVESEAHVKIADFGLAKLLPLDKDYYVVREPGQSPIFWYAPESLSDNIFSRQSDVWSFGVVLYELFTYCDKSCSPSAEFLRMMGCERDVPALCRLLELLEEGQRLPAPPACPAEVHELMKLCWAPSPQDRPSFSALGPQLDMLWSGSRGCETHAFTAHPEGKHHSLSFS
JAK1, sequence (P23458 whole entry, species assumed): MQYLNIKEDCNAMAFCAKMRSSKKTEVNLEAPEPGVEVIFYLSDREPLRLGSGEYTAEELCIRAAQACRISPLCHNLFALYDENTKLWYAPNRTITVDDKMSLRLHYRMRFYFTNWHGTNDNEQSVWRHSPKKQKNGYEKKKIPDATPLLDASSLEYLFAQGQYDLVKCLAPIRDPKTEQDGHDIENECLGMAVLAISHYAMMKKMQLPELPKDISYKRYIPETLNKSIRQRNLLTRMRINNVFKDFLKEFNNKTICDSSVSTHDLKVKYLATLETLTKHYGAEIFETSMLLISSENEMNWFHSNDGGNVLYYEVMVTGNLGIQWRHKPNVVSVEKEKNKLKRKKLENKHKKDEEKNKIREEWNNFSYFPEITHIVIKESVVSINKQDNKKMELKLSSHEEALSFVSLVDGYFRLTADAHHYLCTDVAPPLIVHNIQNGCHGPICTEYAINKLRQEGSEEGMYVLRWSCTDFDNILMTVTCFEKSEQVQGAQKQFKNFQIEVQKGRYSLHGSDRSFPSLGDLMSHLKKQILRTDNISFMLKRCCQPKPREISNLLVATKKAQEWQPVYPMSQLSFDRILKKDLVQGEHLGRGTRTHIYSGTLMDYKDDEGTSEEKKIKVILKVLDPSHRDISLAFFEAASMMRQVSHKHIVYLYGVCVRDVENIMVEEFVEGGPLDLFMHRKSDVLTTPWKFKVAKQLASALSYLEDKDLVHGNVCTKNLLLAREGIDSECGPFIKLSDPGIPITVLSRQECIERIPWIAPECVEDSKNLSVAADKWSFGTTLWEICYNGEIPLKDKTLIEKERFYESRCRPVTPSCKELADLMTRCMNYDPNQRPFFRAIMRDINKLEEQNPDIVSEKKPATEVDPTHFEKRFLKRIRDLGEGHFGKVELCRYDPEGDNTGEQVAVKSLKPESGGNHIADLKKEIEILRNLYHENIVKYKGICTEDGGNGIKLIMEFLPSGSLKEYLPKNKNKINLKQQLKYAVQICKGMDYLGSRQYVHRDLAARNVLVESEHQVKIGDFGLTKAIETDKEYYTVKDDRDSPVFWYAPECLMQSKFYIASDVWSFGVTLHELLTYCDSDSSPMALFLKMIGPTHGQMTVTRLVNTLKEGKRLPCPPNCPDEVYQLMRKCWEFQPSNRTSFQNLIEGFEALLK
JAK2, sequence (O60674 whole entry, species assumed): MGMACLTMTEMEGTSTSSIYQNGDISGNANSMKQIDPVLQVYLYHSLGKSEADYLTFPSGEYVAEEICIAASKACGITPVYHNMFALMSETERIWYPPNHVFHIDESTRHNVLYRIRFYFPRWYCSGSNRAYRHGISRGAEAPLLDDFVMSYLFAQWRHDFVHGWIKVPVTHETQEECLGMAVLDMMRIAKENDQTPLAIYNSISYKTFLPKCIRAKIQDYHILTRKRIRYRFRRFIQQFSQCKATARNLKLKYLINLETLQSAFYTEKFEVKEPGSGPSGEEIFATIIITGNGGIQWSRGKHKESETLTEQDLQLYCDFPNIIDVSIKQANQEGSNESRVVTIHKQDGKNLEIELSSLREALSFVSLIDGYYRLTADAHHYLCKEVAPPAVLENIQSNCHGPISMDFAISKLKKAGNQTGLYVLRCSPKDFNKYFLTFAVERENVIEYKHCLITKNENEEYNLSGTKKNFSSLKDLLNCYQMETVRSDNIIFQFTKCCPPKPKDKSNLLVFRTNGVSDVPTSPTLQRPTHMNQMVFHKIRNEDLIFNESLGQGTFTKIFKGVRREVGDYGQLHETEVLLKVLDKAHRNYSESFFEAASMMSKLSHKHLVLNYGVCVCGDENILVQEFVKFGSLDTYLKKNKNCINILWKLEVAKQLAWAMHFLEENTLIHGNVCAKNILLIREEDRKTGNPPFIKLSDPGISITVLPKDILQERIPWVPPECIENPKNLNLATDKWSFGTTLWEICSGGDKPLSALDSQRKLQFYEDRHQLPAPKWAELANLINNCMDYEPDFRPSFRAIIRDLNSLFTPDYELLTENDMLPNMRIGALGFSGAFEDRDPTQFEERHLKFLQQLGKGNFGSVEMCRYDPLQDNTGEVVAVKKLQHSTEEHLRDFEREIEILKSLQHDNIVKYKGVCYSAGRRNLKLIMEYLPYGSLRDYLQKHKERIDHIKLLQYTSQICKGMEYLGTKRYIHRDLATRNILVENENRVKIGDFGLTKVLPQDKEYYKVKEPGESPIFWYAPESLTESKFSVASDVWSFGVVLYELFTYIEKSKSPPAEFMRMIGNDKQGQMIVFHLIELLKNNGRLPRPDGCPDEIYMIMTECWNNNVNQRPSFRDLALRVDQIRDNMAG
TYK2, sequence (P29597 whole entry, species assumed): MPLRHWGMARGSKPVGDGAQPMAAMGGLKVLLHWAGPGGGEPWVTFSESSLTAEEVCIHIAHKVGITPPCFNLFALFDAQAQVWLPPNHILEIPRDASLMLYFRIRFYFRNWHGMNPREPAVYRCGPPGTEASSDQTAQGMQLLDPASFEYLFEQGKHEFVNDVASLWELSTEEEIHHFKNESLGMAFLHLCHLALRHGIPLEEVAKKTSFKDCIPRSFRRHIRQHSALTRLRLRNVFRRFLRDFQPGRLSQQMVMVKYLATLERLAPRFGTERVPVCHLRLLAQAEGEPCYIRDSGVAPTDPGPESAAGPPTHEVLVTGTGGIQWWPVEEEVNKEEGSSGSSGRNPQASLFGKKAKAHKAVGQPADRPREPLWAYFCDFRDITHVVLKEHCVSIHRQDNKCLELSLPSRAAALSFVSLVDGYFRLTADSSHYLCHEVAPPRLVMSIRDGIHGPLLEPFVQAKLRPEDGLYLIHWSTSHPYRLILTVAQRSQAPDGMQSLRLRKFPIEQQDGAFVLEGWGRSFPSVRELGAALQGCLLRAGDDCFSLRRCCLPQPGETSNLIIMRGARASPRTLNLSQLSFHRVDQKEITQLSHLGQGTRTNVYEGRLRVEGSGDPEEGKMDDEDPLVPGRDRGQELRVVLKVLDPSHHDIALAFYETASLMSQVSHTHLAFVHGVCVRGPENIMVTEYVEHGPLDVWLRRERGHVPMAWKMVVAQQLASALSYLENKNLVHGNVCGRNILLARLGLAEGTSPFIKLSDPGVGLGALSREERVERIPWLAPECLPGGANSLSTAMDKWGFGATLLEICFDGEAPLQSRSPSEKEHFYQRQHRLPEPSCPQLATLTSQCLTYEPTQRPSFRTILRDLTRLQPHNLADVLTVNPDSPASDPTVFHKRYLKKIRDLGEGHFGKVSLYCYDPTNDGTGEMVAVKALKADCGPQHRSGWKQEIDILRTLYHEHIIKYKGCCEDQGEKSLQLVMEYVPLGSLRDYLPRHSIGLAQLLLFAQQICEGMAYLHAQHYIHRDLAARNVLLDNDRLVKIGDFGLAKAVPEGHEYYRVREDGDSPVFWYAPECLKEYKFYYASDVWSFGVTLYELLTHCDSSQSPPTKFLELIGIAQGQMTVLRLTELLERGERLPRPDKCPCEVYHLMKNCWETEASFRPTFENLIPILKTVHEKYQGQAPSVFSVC

| SMILES | IC50 (JAK1) | IC50 (JAK2) | IC50 (JAK3) | IC50 (TYK2) |
| --- | --- | --- | --- | --- |
| CNC(=O)c1n[nH]c2cc(-c3cc(F)c(O)cc3CC(F)(F)F)nc(NCc3ccccc3N(C)S(=O)(=O)c3ccc(C)nc3)c12 [Example 69, 6-[5-fluoro-4-hydroxy-2-(2,2,2-trifluoroethyl)phenyl]-N-methyl-4-[(2-{methyl[(6-methylpyridin-3-yl)sulfonyl]amino}benzyl)amino]-1H-pyrazolo[4,3-c]pyridine-3-carboxamide] | 16.2 nM | 63.7 nM | 257 nM | 66.8 nM |
| CCc1cc(O)c(F)cc1-c1cc2[nH]ncc2c(N(C)Cc2ccccc2N(C)S(C)(=O)=O)n1 [Example 146, N-[2-({[6-(2-Ethyl-5-fluoro-4-hydroxyphenyl)-1H-pyrazolo[4,3-c]pyridin-4-yl](methyl)amino}methyl)phenyl]-N-methylmethanesulfonamide hydrochloride] | 0.9 nM | 5.1 nM | 19.1 nM | 49.9 nM |
| CCc1cc(O)c(F)cc1-c1cc2[nH]ncc2c(NCc2cc(Cl)ccc2N(C)S(C)(=O)=O)n1 [Example 133, N-[4-chloro-2-({[6-(2-ethyl-5-fluoro-4-hydroxyphenyl)-1H-pyrazolo[4,3-c]pyridin-4-yl]amino}methyl)phenyl]-N-methylmethanesulfonamide hydrochloride] | 1.2 nM | 5.9 nM | 30.5 nM | 249 nM |
| CN(c1ccccc1CNc1nc(-c2cc(F)c(O)cc2CC(F)(F)F)cc2[nH]nc(C(N)=O)c12)S(C)(=O)=O [Example 77, 6-[5-Fluoro-4-hydroxy-2-(2,2,2-trifluoroethyl)phenyl]-4-({2-[methyl(methylsulfonyl)amino]benzyl}amino)-1H-pyrazolo[4,3-c]pyridine-3-carboxamide] | 3.3 nM | 15.1 nM | 63.6 nM | 27.1 nM |
| CCc1cc(O)c(F)cc1-c1cc2[nH]nc(-c3ncc[nH]3)c2c(NCc2ccccc2N(C)S(C)(=O)=O)n1 [Example 157, N-[2-({[6-(2-Ethyl-5-fluoro-4-hydroxyphenyl)-3-(1H-imidazol-2-yl)-1H-pyrazolo[4,3-c]pyridin-4-yl]amino}methyl)phenyl]-N-methylmethanesulfonamide] | 3.4 nM | 15 nM | 76.5 nM | 11.7 nM |
| CNC(=O)c1n[nH]c2nc(-c3cc(F)c(O)cc3CC(F)(F)F)nc(NCc3ccccc3N(C)S(N)(=O)=O)c12 [Example 109, 6-(5-Fluoro-4-hydroxy-2-(2,2,2-trifluoroethyl)phenyl)-N-methyl-4-((2-(methyl(sulfamoyl)amino)benzyl)amino)-1H-pyrazolo[3,4-d]pyrimidine-3-carboxamide] | 6.4 nM | 31.2 nM | 107 nM | 674 nM |
| CCN(c1ccccc1CNc1nc(-c2cc(F)c(O)cc2CC(F)(F)F)cc2[nH]nc(C(N)=O)c12)S(C)(=O)=O [Example 90, 4-({2-[ethyl(methylsulfonyl)amino]benzyl}amino)-6-[5-fluoro-4-hydroxy-2-(2,2,2-trifluoroethyl)-phenyl]-1H-pyrazolo[4,3-c]pyridine-3-carboxamide] | 2.7 nM | 18.1 nM | 77.1 nM | 23.2 nM |
| CCS(=O)(=O)N(C)c1ccccc1CNc1nc(-c2cc(F)c(O)cc2CC(F)(F)F)cc2[nH]nc(C(N)=O)c12 [Example 85, 6-(5-fluoro-4-hydroxy-2-(2,2,2-trifluoroethyl)phenyl)-4-((2-(N-methylethyl-sulfonamido)benzyl)-amino)-1H-pyrazolo[4,3-c]pyridine-3-carboxamide] | 7.8 nM | 47.2 nM | 156 nM | 81.4 nM |
| CCc1cc(O)c(F)cc1-c1cc2[nH]nc(C(=O)NC)c2c(N[C@@H](C)c2ccccc2N(C)S(C)(=O)=O)n1 [Example 39, 6-(2-Ethyl-5-fluoro-4-hydroxyphenyl)-N-methyl-4-{[(1S)-1-{2-[methyl(methylsulfonyl)amino]phenyl}ethyl]amino}-1H-pyrazolo[4,3-c]pyridine-3-carboxamide] | 32.3 nM | 48.2 nM | 278 nM | 320 nM |
| CCc1cc(O)c(F)cc1-c1cc2[nH]nc(-c3nc(C)c[nH]3)c2c(NCc2ccccc2N(C)S(C)(=O)=O)n1 [Example 159, N-[2-({[6-(2-Ethyl-5-fluoro-4-hydroxyphenyl)-3-(4-methyl-1H-imidazol-2-yl)-1H-pyrazolo[4,3-c]pyridin-4-yl]amino}methyl)phenyl]-N-methylmethanesulfonamide] | 4.3 nM | 18.5 nM | 83.3 nM | 16.1 nM |
| CCc1cc(O)c(F)cc1-c1cc2[nH]nc(C(=O)NC)c2c(NCc2ccccc2N(CC)S(=O)(=O)CC)n1 [Example 2, 4-({2-[ethyl(ethylsulfonyl)-amino]benzyl}amino)-6-(2-ethyl-5-fluoro-4-hydroxyphenyl)-N-methyl-1H-pyrazolo[4,3-c]pyridine-3-carboxamide] | 3.4 nM | 17 nM | 84.5 nM | 12.1 nM |
| CN(c1ccccc1CNc1nc(-c2cc(F)c(O)cc2C2CC2)cc2[nH]nc(C(N)=O)c12)S(C)(=O)=O [Example 47, 6-(2-cyclopropyl-5-fluoro-4-hydroxyphenyl)-4-({2-[methyl(methylsulfonyl)amino]benzyl}amino)-1H-pyrazolo[4,3-c]pyridine-3-carboxamide] | 10.6 nM | 28.4 nM | 54.3 nM | 320 nM |
| CCCN(Cc1cc(C)ccc1N(C)S(C)(=O)=O)c1nc(-c2cc(F)c(O)cc2CC)cc2[nH]ncc12 [Example 144, N-[2-({[6-(2-ethyl-5-fluoro-4-hydroxyphenyl)-1H-pyrazolo[4,3-c]pyridin-4-yl](propyl)amino}-methyl)-4-methylphenyl]-N-methylmethanesulfonamide] | 55.3 nM | 70.7 nM | 186 nM | 8730 nM |
| CCN(c1ccccc1CNc1nc(-c2cc(F)c(O)cc2CC(F)(F)F)nc2[nH]nc(C(=O)NC)c12)S(C)(=O)=O [Example 103, 4-((2-(N-ethylmethylsulfonamido)-benzyl)amino)-6-(5-fluoro-4-hydroxy-2-(2,2,2-trifluoroethyl)phenyl)-N-methyl-1H-pyrazolo[3,4-d]pyrimidine-3-carboxamide] | 5 nM | 31 nM | 92.6 nM | 349 nM |
| CCc1cc(O)ccc1-c1cc2[nH]ncc2c(N2CCC(OC)CC2)n1 [Example 128, 3-ethyl-4-[4-(4-methoxypiperidin-1-yl)-1H-pyrazolo[4,3-c]pyridin-6-yl]phenol diethylamine salt] | 3.6 nM | 12.6 nM |  | 514 nM |
| CCc1cc(O)ccc1-c1cc2[nH]ncc2c(NCc2c(C)cccc2N(C)S(C)(=O)=O)n1 [Example 127, N-[2-({[6-(2-ethyl-4-hydroxyphenyl)-1H-pyrazolo[4,3-c]pyridin-4-yl]amino}methyl)-3-methylphenyl]-N-methylmethanesulfonamide diethylamine salt] | 6 nM | 14.9 nM |  | 625 nM |
| CCCCN(c1ccccc1CNc1nc(-c2cc(F)c(O)cc2CC)cc2[nH]ncc12)S(C)(=O)=O [Example 139] |  | 16.7 nM | 27.5 nM | 1990 nM |
